Each structure is given as a SMILES string.

The target of one test is T1, BRD9 (Homo sapiens, UniProt Q9H8M2).
T1 construct: 134-239 was cloned, expressed, and purified to homogeneity; Flag; made in house
T1 sequence (Q9H8M2 134-239 limits assumed): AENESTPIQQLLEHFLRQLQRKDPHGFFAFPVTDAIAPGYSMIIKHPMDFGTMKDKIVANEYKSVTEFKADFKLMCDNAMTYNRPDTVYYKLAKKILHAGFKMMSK
In words: BRD9 AlphaLisa Binding Assay. As to the method: IC50 Measurements for Inhibitors Using BRD9 AlphaLisa Binding Assay His/Flag epitope tagged BRD9134-239 was cloned, expressed, and purified to homogeneity. […] After 20 minutes incubation at room temperature AlphaLisa Streptavidin Acceptor Beads (Perkin-A[…]) and AlphaLisa Nickel donor beads (Perkin AS 10 ID) were added to a final concentration of 15 ug/mL each.
On the technique in general: Alpha assays give light when donor and acceptor beads are brought close together.
Regarding `Cn1cc(C(=O)NC2CCCN(C(=O)OC(C)(C)C)C2)c2cc[nH]c2c1=O` (stereo not shown) [Example 138], the IC50 (as a rule, the concentration that gives 50% inhibition) is 0.31 µM.

With `CN(C(=O)c1cn(C)c(=O)c2[nH]ccc12)C1CCN(c2nccc(C#N)n2)CC1` [Example 146, N-[1-(4-cyanopyrimidin-2-yl)-4-piperidyl]-N,6-dimethyl-7-oxo-1H-pyrrolo[2,3-c]pyridine-4-carboxamide], the IC50 came to 1.6 µM.

As to `C=CCn1cc(C(=O)N(C)C2CCN(c3nccc(C(F)(F)F)n3)CC2)c2cc[nH]c2c1=O` [Example 159, 6-allyl-N-methyl-7-oxo-N-[1-[4-(trioromethyl)pyrimidin-2-yl]-4-piperidyl]-1H-pyrrolo[2,3-c]pyridine-4-carboxamide], the IC50 turned out to be 4.3 µM.

As for `C=CCn1cc(C(=O)N(C)C2CCN(c3ccncn3)CC2)c2cc[nH]c2c1=O` [Example 161, 6-allyl-N-methyl-7-oxo-N-(1-pyrimidin-4-yl-4-piperidyl)-1H-pyrrolo[2,3-c]pyridine-4-carboxamide], the IC50 worked out at 2.9 µM.

In turn, `CC(C)N1CCC(CN(C)C(=O)c2cn(C)c(=O)c3[nH]ccc23)CC1` [Example 190] registered an IC50 of 15 µM.

In turn, `CC(C)CCN1CCC(N(C)C(=O)c2cn(C)c(=O)c3[nH]ccc23)CC1` [Example 217] came in with an IC50 of 4.7 µM.

`CCCCn1cc(C(=O)NCC2CCN(C)CC2)c2cc[nH]c2c1=O` [Example 248] registered an IC50 of 3.3 µM.

The compound `Cn1cc(C(=O)NCc2ccccc2)c2cc[nH]c2c1=O` [Example 257] showed an IC50 of 0.18 µM.

As to `CCCCn1cc(C(=O)NCc2ccccc2)c2cc[nH]c2c1=O` [Example 259], the IC50 is 0.6 µM.

For `C/C=C/Cn1cc(C(=O)NCc2ccccc2)c2cc[nH]c2c1=O` [Example 260], the IC50 was 0.18 µM.

On to `Cn1cc(C(=O)NCc2ccc(F)cc2)c2cc[nH]c2c1=O` [Example 263], for which the IC50 stood at 0.48 µM.

With `C[C@H](NC(=O)c1cn(C)c(=O)c2[nH]ccc12)c1ccccc1` [Example 264], the IC50 is 0.44 µM.

The target of the next test is T2, BRD4(BD1) (Homo sapiens, UniProt O60885).
T2 construct: 42-168 was cloned, expressed, and purified to; His; made in house
Nature of the test: BRD4 AlphaLisa Binding Assay. From the text:
IC50 Measurements for Inhibitors Using BRD4 AlphaLisa Binding Assay
In the case of `Cn1cc(C(=O)NCCN2CCOCC2)c2cc[nH]c2c1=O` [Example 8, 6-methyl-N-(2-morpholinoethyl)-7-oxo-1H-pyrrolo[2,3-c]pyridine-4-carboxamide], the IC50 turned out to be 4.9 µM.

`Cn1cc(C(=O)NCCCN2CCOCC2)c2cc[nH]c2c1=O` [Example 31, 6-methyl-N-(3-morpholinopropyl)-7-oxo-1H-pyrrolo[2,3-c]pyridine-4-carboxamide] returned an IC50 of 17 µM.

With `CN1CCN(CCNC(=O)c2cn(C)c(=O)c3[nH]ccc23)CC1` [Example 32, 6-methyl-N-[2-(4-methylpiperazin-1-yl)ethyl]-7-oxo-1H-pyrrolo[2,3-c]pyridine-4-carboxamide], the IC50 came out at 9.8 µM.

`Cn1cc(C(=O)N2CCC(Cc3cccnc3)CC2)c2cc[nH]c2c1=O` [Example 46, 6-methyl-4-[4-(3-pyridylmethyl)piperidine-1-carbonyl]-1H-pyrrolo[2,3-c]pyridin-7-one]: the IC50 was 6.4 µM.

`Cn1cc(C(=O)N2CCC(n3cnc4ccccc43)CC2)c2cc[nH]c2c1=O` [Example 50, 4-[4-(benzimidazol-1-yl)piperidine-1-carbonyl]-6-methyl-1H-pyrrolo[2,3-c]pyridin-7-one] came in with an IC50 of 16 µM.

`Cn1cc(C(=O)N2CCC(c3ccccn3)CC2)c2cc[nH]c2c1=O` [Example 55, 6-methyl-4-[4-(2-pyridyl)piperidine-1-carbonyl]-1H-pyrrolo[2,3-c]pyridin-7-one] showed an IC50 of 9.5 µM.

The compound `Cn1cc(C(=O)N2CCC(C(F)(F)F)CC2)c2cc[nH]c2c1=O` [Example 57, 6-methyl-4-[4-(trifluoromethyl)piperidine-1-carbonyl]-1H-pyrrolo[2,3-c]pyridin-7-one] registered an IC50 of 4.1 µM.

Regarding `Cn1cc(C(=O)N2CCC(C#N)CC2)c2cc[nH]c2c1=O` [Example 64, 1-(6-methyl-7-oxo-1H-pyrrolo[2,3-c]pyridine-4-carbonyl)piperidine-4-carbonitrile], the IC50 was found to be 8 µM.

For the compound `Cn1cc(C(=O)NCc2ccc(S(C)(=O)=O)cc2)c2cc[nH]c2c1=O` [Example 92], the IC50 came to 8.4 µM.

Compound `COC(=O)[C@@H](NC(=O)c1cn(C)c(=O)c2[nH]ccc12)C1CCCCC1` [Example 93] had an IC50 of 2.9 µM.

Regarding `C[C@@H](NC(=O)c1cn(C)c(=O)c2[nH]ccc12)C1CCCCC1` [Example 94], the IC50 came out at 3.1 µM.

Turning to `COC[C@@H](NC(=O)c1cn(C)c(=O)c2[nH]ccc12)c1ccccc1` [Example 95], the IC50 amounted to 11 µM.

The compound `Cn1cc(C(=O)N[C@H](C(=O)O)c2ccccc2)c2cc[nH]c2c1=O` [Example 96] displayed an IC50 of 5 µM.

`Cn1cc(C(=O)NCC2CCOCC2)c2cc[nH]c2c1=O` [Example 101] returned an IC50 of 17 µM.

Compound `CC(NC(=O)c1cn(C)c(=O)c2[nH]ccc12)c1ccccc1F` (stereo not shown) [Example 116] gave an IC50 of 4.3 µM.

In the case of `CCOC(C)CNC(=O)c1cn(C)c(=O)c2[nH]ccc12` (stereo not shown) [Example 117], the IC50 stood at 4 µM.

Consider `COc1ccccc1C(C)NC(=O)c1cn(C)c(=O)c2[nH]ccc12` (stereo not shown) [Example 119], for which the IC50 turned out to be 1.2 µM.

As to `CC(C)C(NC(=O)c1cn(C)c(=O)c2[nH]ccc12)c1ccccc1` (stereo not shown) [Example 123], the IC50 worked out at 11 µM.

Compound `CC(NC(=O)c1cn(C)c(=O)c2[nH]ccc12)c1ccc(Cl)cc1` (stereo not shown) [Example 126] returned an IC50 of 3.2 µM.

`Cc1ccccc1CCNC(=O)c1cn(C)c(=O)c2[nH]ccc12` [Example 127] registered an IC50 of 1.2 µM.

The compound `CC(c1ccccc1)N(C)C(=O)c1cn(C)c(=O)c2[nH]ccc12` (stereo not shown) [Example 128] had an IC50 of 16 µM.

In the case of `Cn1cc(C(=O)NCC2CCCCN2C(=O)OC(C)(C)C)c2cc[nH]c2c1=O` (stereo not shown) [Example 132], the IC50 stood at 13 µM.

The compound `CC(C)c1cccc(N2CCC(N(C)C(=O)c3cn(C)c(=O)c4[nH]ccc34)CC2)c1` [Example 179, N-[1-(3-isopropylphenyl)-4-piperidyl]-N,6-dimethyl-7-oxo-1H-pyrrolo[2,3-c]pyridine-4-carboxamide] came in with an IC50 of 2.1 µM.

Turning to `CN(CC1CCN(Cc2ccccc2Cl)CC1)C(=O)c1cn(C)c(=O)c2[nH]ccc12` [Example 198], the IC50 amounted to 1.1 µM.

The compound `CN(C(=O)c1cn(C)c(=O)c2[nH]ccc12)C1CCN(Cc2ccccc2C#N)CC1` [Example 215] displayed an IC50 of 3.8 µM.

As to `COc1cccc(CN2CCC(N(C)C(=O)c3cn(C)c(=O)c4[nH]ccc34)CC2)c1` [Example 222], the half-maximal inhibitory concentration (IC50) was determined as 16 µM.

`C[C@@H](NC(=O)c1cn(C)c(=O)c2[nH]ccc12)c1ccccc1` [Example 256, (R)-6-methyl-7-oxo-N-(1-phenylethyl)-6,7-dihydro-1Hpyrrolo[2,3-c]pyridine-4-carboxamide] gave an IC50 of 3.8 µM.

`Cn1cc(C(=O)NCCc2ccccc2)c2cc[nH]c2c1=O` [Example 258] registered an IC50 of 0.8 µM.

`COc1ccc(CNC(=O)c2cn(C)c(=O)c3[nH]ccc23)cc1` [Example 261] came in with an IC50 of 2.7 µM.

With `Cn1cc(C(=O)NCc2cccs2)c2cc[nH]c2c1=O` [Example 262], the IC50 is 3.3 µM.

The compound `Cn1cc(C(=O)NC2CCCCc3ccccc32)c2cc[nH]c2c1=O` (stereo not shown) [Example 265, 6-methyl-7-oxo-N-(6,7,8,9-tetrahydro-5Hbenzo[7]annulen-5-yl)-6,7-dihydro-1H-pyrrolo[2,3-c]pyridine-4-carboxamide] returned an IC50 of 5.3 µM.

(Values after patent publication US10258603B2 (priority 2014, dated 2019).)
